Reference: PubChem BioAssay (NCI)
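Following 48 hours of exposure in 96-well plates, responses at five concentrations were used to interpolate endpoints linearly. GI50 is the concentration that inhibits growth by half. TGI: concentration producing complete growth inhibition.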

Columns and labels:
Assay in all cases: inhibition of tumour cell growth, NCI panel, 48 h
LOX IMVI melanoma = test system: LOX IMVI melanoma
CAKI-1 renal = test system: CAKI-1 renal
MDA-MB-231 breast = test system: MDA-MB-231 breast
COLO 205 colon = test system: COLO 205 colon
K-562 leukemia = test system: K-562 leukemia
HCC-2998 colon = test system: HCC-2998 colon
NCI-H226 lung = test system: NCI-H226 lung
HT29 colon = test system: HT29 colon
HOP-62 NSCLC = test system: HOP-62 NSCLC
HL-60(TB) leukemia = test system: HL-60(TB) leukemia
SK-OV-3 ovarian = test system: SK-OV-3 ovarian
NCI-H23 lung = test system: NCI-H23 lung
SK-MEL-5 melanoma = test system: SK-MEL-5 melanoma
A549 NSCLC = test system: A549 NSCLC
HOP-92 NSCLC = test system: HOP-92 NSCLC
CCRF-CEM leukemia = test system: CCRF-CEM leukemia
SK-MEL-28 melanoma = test system: SK-MEL-28 melanoma
U251 CNS = test system: U251 CNS
SW-620 colon = test system: SW-620 colon
786-0 renal = test system: 786-0 renal
UO-31 renal = test system: UO-31 renal
OVCAR-4 ovarian = test system: OVCAR-4 ovarian
MCF7 breast = test system: MCF7 breast
SR leukemia = test system: SR leukemia
NCI-H522 lung = test system: NCI-H522 lung
TK-10 renal = test system: TK-10 renal
UACC-62 melanoma = test system: UACC-62 melanoma
A498 renal = test system: A498 renal
EKVX NSCLC = test system: EKVX NSCLC
KM12 colon = test system: KM12 colon
SK-MEL-2 melanoma = test system: SK-MEL-2 melanoma
T-47D breast = test system: T-47D breast
RXF 393 renal = test system: RXF 393 renal
MALME-3M melanoma = test system: MALME-3M melanoma
SF-268 CNS = test system: SF-268 CNS
IGROV1 ovarian = test system: IGROV1 ovarian
HS 578T breast = test system: HS 578T breast
BT-549 breast = test system: BT-549 breast
SNB-19 CNS = test system: SNB-19 CNS
OVCAR-3 ovarian = test system: OVCAR-3 ovarian
OVCAR-8 ovarian = test system: OVCAR-8 ovarian
SF-539 CNS = test system: SF-539 CNS
UACC-257 melanoma = test system: UACC-257 melanoma
HCT-116 colon = test system: HCT-116 colon
PC-3 prostate = test system: PC-3 prostate
DU-145 prostate = test system: DU-145 prostate
HCT-15 colon = test system: HCT-15 colon
SNB-75 CNS = test system: SNB-75 CNS
SF-295 CNS = test system: SF-295 CNS
MDA-MB-435 = test system: MDA-MB-435
NCI-H460 lung = test system: NCI-H460 lung
SN12C renal = test system: SN12C renal
M14 melanoma = test system: M14 melanoma
OVCAR-5 ovarian = test system: OVCAR-5 ovarian
ACHN renal = test system: ACHN renal
MOLT-4 leukemia = test system: MOLT-4 leukemia
NCI/ADR-RES ovarian = test system: NCI/ADR-RES ovarian

## O=S(=O)(Nc1cccc(Cl)c1)c1ccc(-c2cnc(C3CC3)o2)cc1
LOX IMVI melanoma
  GI50: 0.617 µM
  TGI: 18.4 µM
CAKI-1 renal
  GI50: 0.232 µM
  TGI: 14 µM
MDA-MB-231 breast
  GI50: 2.45 µM
  TGI: 22 µM
COLO 205 colon
  GI50: 0.639 µM
  TGI: 6.18 µM
K-562 leukemia
  GI50: 0.305 µM
  TGI: 66 µM
HCC-2998 colon
  GI50: 2.87 µM
  TGI: 17.1 µM
NCI-H226 lung
  GI50: 1.9 µM
  TGI: 17.2 µM
HT29 colon
  GI50: 0.372 µM
  TGI: 12.2 µM
HOP-62 NSCLC
  GI50: 0.74 µM
  TGI: 16.3 µM
HL-60(TB) leukemia
  GI50: 0.388 µM
  TGI: 12.3 µM
SK-OV-3 ovarian
  GI50: 5.41 µM
  TGI: 24.9 µM
NCI-H23 lung
  GI50: 2.14 µM
  TGI: 20.4 µM
SK-MEL-5 melanoma
  GI50: 2.01 µM
  TGI: 14.4 µM
A549 NSCLC
  GI50: 1.35 µM
  TGI: 44 µM
HOP-92 NSCLC
  GI50: 1.74 µM
  TGI: 15.2 µM
CCRF-CEM leukemia
  GI50: 0.624 µM
  TGI: > 100 µM
SK-MEL-28 melanoma
  GI50: 10.2 µM
  TGI: 23 µM
U251 CNS
  GI50: 0.768 µM
  TGI: 19.8 µM
SW-620 colon
  GI50: 0.409 µM
  TGI: 31.3 µM
786-0 renal
  GI50: 3.9 µM
  TGI: 34.8 µM
UO-31 renal
  GI50: 1.68 µM
  TGI: 18.8 µM
OVCAR-4 ovarian
  GI50: 2.92 µM
  TGI: 16.7 µM
MCF7 breast
  GI50: 0.398 µM
  TGI: 51.6 µM
SR leukemia
  GI50: 0.409 µM
  TGI: 32.4 µM
NCI-H522 lung
  GI50: 0.509 µM
  TGI: 16.2 µM
TK-10 renal
  GI50: 5.11 µM
  TGI: 26.5 µM
UACC-62 melanoma
  GI50: 0.47 µM
  TGI: 15.3 µM
A498 renal
  GI50: 0.453 µM
  TGI: 9.03 µM
EKVX NSCLC
  GI50: 2.88 µM
  TGI: 40.3 µM
KM12 colon
  GI50: 0.443 µM
  TGI: 16.6 µM
SK-MEL-2 melanoma
  GI50: 0.695 µM
  TGI: 20.3 µM
T-47D breast
  GI50: 0.519 µM
  TGI: 22 µM
RXF 393 renal
  GI50: 0.835 µM
  TGI: 10.9 µM
MALME-3M melanoma
  GI50: 10.3 µM
  TGI: 32 µM
SF-268 CNS
  GI50: 3.28 µM
  TGI: 25.2 µM
IGROV1 ovarian
  GI50: 0.662 µM
  TGI: 21.6 µM
HS 578T breast
  GI50: 0.679 µM
  TGI: 16.6 µM
BT-549 breast
  GI50: 1.25 µM
  TGI: 22.7 µM
SNB-19 CNS
  GI50: 1.31 µM
  TGI: 35.8 µM
OVCAR-3 ovarian
  GI50: 0.417 µM
  TGI: 12.3 µM
OVCAR-8 ovarian
  GI50: 1.95 µM
  TGI: 32.9 µM
SF-539 CNS
  GI50: 0.683 µM
  TGI: 11.8 µM
UACC-257 melanoma
  GI50: 6.98 µM
  TGI: 30.2 µM
HCT-116 colon
  GI50: 0.48 µM
  TGI: 18.7 µM
PC-3 prostate
  GI50: 0.668 µM
  TGI: 17.6 µM
DU-145 prostate
  GI50: 2.68 µM
  TGI: 29.1 µM
HCT-15 colon
  GI50: 0.43 µM
  TGI: 20.3 µM
SNB-75 CNS
  GI50: 0.208 µM
  TGI: 1.96 µM
SF-295 CNS
  GI50: 0.394 µM
  TGI: 12 µM
MDA-MB-435
  GI50: 0.379 µM
  TGI: 16.7 µM
NCI-H460 lung
  GI50: 0.446 µM
  TGI: 16.7 µM
SN12C renal
  GI50: 1.62 µM
  TGI: 20.9 µM
M14 melanoma
  GI50: 0.593 µM
  TGI: 24.3 µM
OVCAR-5 ovarian
  GI50: 2.39 µM
  TGI: 18.3 µM
ACHN renal
  GI50: 0.925 µM
  TGI: 37 µM
MOLT-4 leukemia
  GI50: 0.657 µM
  TGI: 60.1 µM
NCI/ADR-RES ovarian
  GI50: 0.581 µM
  TGI: 17 µM
